Data from ChEMBL document CHEMBL1130306, “Asymmetric synthesis of a conformationally constrained N-phosphonoalkyl dipeptide” (Bioorg Med Chem Lett, 1997).
Calls of active or inactive are those of the source.

How the values were obtained:
[1] = biological target: 72 kDa type IV collagenase (Homo sapiens) (UniProt P08253); experiment: Inhibition of human recombinant gelatinase-A (MMP-2) at 10e-4 M (No significant activity)
[2] = biological target: Matrix metalloproteinase-9 (Homo sapiens) (UniProt P14780); experiment: Inhibition of human recombinant Matrix metalloprotease-9 at 10e-4 M (No significant activity)
[3] = biological target: T1, Interstitial collagenase (Homo sapiens) (UniProt P03956); experiment: Inhibition of human recombinant fibroblast collagenase (MMP-1) at 10e-4 M (No significant activity)
T1 sequence (whole entry): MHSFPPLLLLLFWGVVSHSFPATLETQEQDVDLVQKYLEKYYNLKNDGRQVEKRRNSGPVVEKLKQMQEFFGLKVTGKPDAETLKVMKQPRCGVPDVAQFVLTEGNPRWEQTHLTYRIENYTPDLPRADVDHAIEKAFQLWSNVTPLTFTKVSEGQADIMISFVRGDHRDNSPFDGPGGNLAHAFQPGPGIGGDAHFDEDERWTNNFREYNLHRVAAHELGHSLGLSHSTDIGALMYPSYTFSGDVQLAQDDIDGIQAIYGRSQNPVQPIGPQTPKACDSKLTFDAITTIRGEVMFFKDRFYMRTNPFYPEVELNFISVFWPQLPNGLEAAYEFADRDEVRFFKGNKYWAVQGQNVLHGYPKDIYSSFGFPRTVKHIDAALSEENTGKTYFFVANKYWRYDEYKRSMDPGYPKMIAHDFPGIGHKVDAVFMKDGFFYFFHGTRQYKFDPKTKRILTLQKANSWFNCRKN

Measured: Activity

Matrix metalloproteinase-9 (Homo sapiens), sequence (P14780 whole entry): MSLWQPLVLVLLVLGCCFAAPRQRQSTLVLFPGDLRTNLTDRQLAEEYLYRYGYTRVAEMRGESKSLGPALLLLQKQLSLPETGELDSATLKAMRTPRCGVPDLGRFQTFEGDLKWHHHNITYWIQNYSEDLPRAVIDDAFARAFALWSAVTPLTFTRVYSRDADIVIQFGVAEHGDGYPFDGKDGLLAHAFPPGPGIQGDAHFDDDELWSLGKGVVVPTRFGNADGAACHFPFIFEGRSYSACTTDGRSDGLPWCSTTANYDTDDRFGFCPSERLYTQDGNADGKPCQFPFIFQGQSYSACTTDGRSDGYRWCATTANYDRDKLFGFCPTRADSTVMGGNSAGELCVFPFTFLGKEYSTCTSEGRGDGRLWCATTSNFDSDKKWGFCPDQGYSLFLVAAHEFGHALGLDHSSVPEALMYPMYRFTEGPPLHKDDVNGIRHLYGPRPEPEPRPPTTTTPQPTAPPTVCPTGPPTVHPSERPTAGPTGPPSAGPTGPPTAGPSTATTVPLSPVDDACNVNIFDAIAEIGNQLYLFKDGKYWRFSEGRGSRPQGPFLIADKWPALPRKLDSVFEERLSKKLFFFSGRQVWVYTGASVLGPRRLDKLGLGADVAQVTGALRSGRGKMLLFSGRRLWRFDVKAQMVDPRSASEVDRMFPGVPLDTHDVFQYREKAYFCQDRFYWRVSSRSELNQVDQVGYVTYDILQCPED
72 kDa type IV collagenase (Homo sapiens), sequence (P08253 110-660 limits assumed): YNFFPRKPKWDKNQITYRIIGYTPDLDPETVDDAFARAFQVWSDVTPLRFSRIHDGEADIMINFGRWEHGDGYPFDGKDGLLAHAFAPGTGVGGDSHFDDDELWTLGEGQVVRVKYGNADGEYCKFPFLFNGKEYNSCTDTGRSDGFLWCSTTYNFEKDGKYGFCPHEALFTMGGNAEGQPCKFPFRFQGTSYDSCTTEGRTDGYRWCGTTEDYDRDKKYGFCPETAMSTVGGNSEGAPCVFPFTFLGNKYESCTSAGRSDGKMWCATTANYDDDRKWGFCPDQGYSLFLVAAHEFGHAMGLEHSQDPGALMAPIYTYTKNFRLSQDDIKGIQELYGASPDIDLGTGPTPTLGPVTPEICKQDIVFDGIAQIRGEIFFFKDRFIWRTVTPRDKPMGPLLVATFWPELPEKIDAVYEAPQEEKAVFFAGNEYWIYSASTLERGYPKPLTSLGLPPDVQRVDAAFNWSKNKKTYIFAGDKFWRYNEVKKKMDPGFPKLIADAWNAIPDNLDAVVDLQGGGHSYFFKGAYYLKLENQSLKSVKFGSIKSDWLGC

CNC(=O)[C@H](Cc1c[nH]c2ccccc12)NC(=O)[C@@H]1CCC[C@@H](P(=O)(O)O)N1
inactive: all assays above

CNC(=O)[C@H](Cc1c[nH]c2ccccc12)NC(=O)[C@H]1CCC[C@@H](P(=O)(O)O)N1
inactive: all assays above
